The term Ki denotes a measure of affinity in units of concentration, obtained from inhibition or displacement. Usually Papp stands for the rate of passage across a membrane or cell layer, normalised by area and donor concentration. Read a high Papp as fast passage. What is called half-life is how long it takes for the measured level to halve.

Data set [1] deals with human cathepsin L (Homo sapiens, UniProt P07711). As to the kind of experiment: Cathepsin L Ki. In kind it is biochemical. Here is the method: The procedure above with the following amendments is used for the determination of Ki for cathepsin L.
The enzyme is commercially available human cathepsin L (for example Calbiochem). The substrate is H-D-Val-Leu-Lys-AMC available from Bahcem. The assay buffer is 100 mM sodium acetate 1 mM EDTA, pH5.5) The DMSO stock (10 mM in 100% DMSO) is diluted to 10% in assay buffer. Enzyme is prepared at 5 nM concentration in assay buffer plus 1 mM dithiothreitol just before use. 2 ul of 10 mM inhibitor made up in 100% DMSO is dispensed into row A. 10 ul of 50 uM substrate (=1/200 dilution of 10 mM stock in DMSO, diluted in assay buffer)
(§1) Potential inhibitors are screened using the above assay with variable concentrations of test compound. Reactions were initiated by addition of enzyme to buffered solutions of substrate and inhibitor. Ki values were calculated according to equation 1
(§2) [formula] where v0 is the velocity of the reaction, V is the maximal velocity, S is the concentration of substrate with Michaelis constant of KM, and/is the concentration of inhibitor.

The nature of data set [2]: Caco-2 permeability (Papp). It counts as in vitro ADME. Particulars: human; Caco-2 assay, standard concentration 10 μM. The procedure: The transport plate comprises 3 rows of 4 wells.
Determination of the cumulative fraction absorbed, FAcum, versus time. FAcum is calculated from: […]
A linear relationship should be obtained.
(Passage across Caco-2 layers is used to estimate intestinal permeability.)

Data set [3] addresses T1, baculovirus-expressed human cathepsin S (Homo sapiens, UniProt P25774).
T1 construct: made in house
Briefly: Cathepsin S Ki determination. It counts as biochemical. The procedure:
280 μl/well of 12.5% DMSO are added to rows B-H of two columns of a 96 deep well polypropylene plate. 70 μl/well of substrate is added to row A. 2×250 μl/well of assay buffer (100 mM Na phosphate, 100 mM NaCl, pH 6.5) is added to row A, mixed, and double diluted down the plate to row H. 100 μl/well of assay buffer is added to columns 2-5 and 7-12 of 4 rows of a 96 well V bottom polypropylene plate. 200 μl/well of assay buffer is added to columns 1 and 6. […] Add 90 μl assay buffer containing 1 mM DTT and 2 nM cathepsin S to each well of rows B-H and 180 μl to row A. Mix row A using a multichannel pipette and double dilute to row G. Mix row H and read in the fluorescent spectrophotometer. […] The second test compound is added to column 6 of the top row, the third to column 1 of the second row etc. Add 1 μl of comparator to column 6 of the bottom row. Mix column 1 and double dilute to column 5. Mix column 6 and double dilute to column 10. Using an 8-channel multistepping pipette set to 5×10 μl, distribute 10 μl/well of substrate to the 384 well assay plate. Distribute the first column of the substrate dilution plate to all columns of the assay plate starting at row A. The tip spacing of the multichannel pipette will correctly skip alternate rows. Distribute the second column to all columns starting at row B. Using a 12-channel multistepping pipette set to 4×10 μl, distribute 10 μl/well of inhibitor to the 384 well assay plate. Distribute the first row of the inhibitor dilution plate to alternate rows of the assay plate starting at A1. The tip spacing of the multichannel pipette will correctly skip alternate columns. Similarly, distribute the second, third and fourth rows to alternate rows and columns starting at A2, B1 and B2 respectively. Mix 20 ml assay buffer and 20 μl 1M DTT. Add sufficient cathepsin S to give 2 nM final concentration. Using the a distributor such as a Multidrop 384, add 30 μl/well to all wells of the assay plate and read in fluorescent spectrophotomoter such as an Ascent. Fluorescent readings, (excitation and emission wavelengths 390 nm and 460 nm respectively, set using bandpass filters) reflecting the extent of enzyme cleavage of the fluorescent substrate, notwithstanding the inhibitor, are linear rate fitted for each well. Fitted rates for all wells for each inhibitor are fitted to the competitive inhibition equation using SigmaPlot 2000 to determine V, Km and Ki values. Potential inhibitors are screened using the above assay with variable concentrations of test compound. Reactions were initiated by addition of enzyme to buffered solutions of substrate and inhibitor. Ki values were calculated according to equation 1 [formula] where v0 is the velocity of the reaction, V is the maximal velocity, S is the concentration of substrate with Michaelis constant of KM, and/is the concentration of inhibitor.

In data set [4] the target is T2, human recombinant cathepsin K (Homo sapiens, UniProt P43235).
T2 construct: made in house; host or cells: not fixed: E coli, Pichia or Baculovirus systems named as options
T2 sequence (P43235 115-329): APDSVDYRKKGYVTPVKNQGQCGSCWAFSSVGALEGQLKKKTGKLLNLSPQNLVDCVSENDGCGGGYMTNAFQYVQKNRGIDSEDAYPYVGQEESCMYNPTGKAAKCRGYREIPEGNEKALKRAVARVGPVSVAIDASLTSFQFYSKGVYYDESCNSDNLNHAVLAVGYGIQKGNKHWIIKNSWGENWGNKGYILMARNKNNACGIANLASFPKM
Briefly: Determination of cathepsin K proteolytic catalytic activity (Ki). It counts as biochemical. The procedure: Convenient assays for cathepsin K are carried out using human recombinant enzyme, such as that described in PDB.
The recombinant cathepsin K can be expressed in a variety of commercially available expression systems including E coli, Pichia and Baculovirus systems. The purified enzyme is activated by removal of the prosequence by conventional methods.
Standard assay conditions for the determination of kinetic constants used a fluorogenic peptide substrate, typically H-D-Ala-Leu-Lys-AMC, and were determined in either 100 mM Mes/Tris, pH 7.0 containing 1 mM EDTA and 10 mM 2-mercaptoethanol or 100 mM Na phosphate, imM EDTA, 0.1% PEG4000 pH 6.5 or 100 mM Na acetate, pH 5.5 containing 5 mM EDTA and 20 mM cysteine, in each case optionally with […] as stabiliser. The enzyme concentration used was 5 nM. The stock substrate solution was prepared at 10 mM in DMSO. Screens were carried out at a fixed substrate concentration of 60 μM and detailed kinetic studies with doubling dilutions of substrate from 250 μM. The total DMSO concentration in the assay was kept below 3%. All assays were conducted at ambient temperature. Product fluorescence (excitation at 390 nm, emission at 460 nm) was monitored with a Labsystems Fluoroskan Ascent fluorescent plate reader. Product progress curves were generated over 15 minutes following generation of AMC product.
as §1, §2

Data set [5] can be described thus: Metabolic stability in human hepatic cytosol assay. It counts as in vitro ADME. The settings on record: 2 μM in pooled human liver cytosol, 1 mg/mL protein, pH 7.4, 37°, 1 mM NADPH. Here is the method: Compounds of the invention and the indicated comparative examples were tested for metabolic stability in a cytosol assay in which the compounds were incubated with commercially available human hepatic cytosol fractions and the disappearance of the compound monitored by HPLC or LC/MS. Pooled human liver cytosol fractions are less likely to represent outlier individuals than blood from a single individual and can be stored frozen, unlike whole blood. The cytosol assay thus provides a consistent assay testbed as a guide to the stability of a compound in the in vivo environment, such as when exposed to whole blood.
In short, test compounds (2 μM) are incubated in pooled human liver cytosol (Xenotech LLC Lenexa US, 1 mg/mL protein in 0.1M phosphate buffer, pH 7.4) at 37° centigrade over a one hour period. The incubations are initiated by the addition of 1 mM NADPH co-factor. Timed sub-samples were taken at 0, 20, 40 and 60 minutes and “crash precipitated” by the addition of 3 volumes of ice-cold acetonitrile. The samples were centrifuged at reduced temperature and the supernatants were separated and analyzed by LC-MS-MS.

Where [6] appears, read: representative values from specific batches of compound/enzyme/assay occasion.

T1 sequence (P25774 115-331): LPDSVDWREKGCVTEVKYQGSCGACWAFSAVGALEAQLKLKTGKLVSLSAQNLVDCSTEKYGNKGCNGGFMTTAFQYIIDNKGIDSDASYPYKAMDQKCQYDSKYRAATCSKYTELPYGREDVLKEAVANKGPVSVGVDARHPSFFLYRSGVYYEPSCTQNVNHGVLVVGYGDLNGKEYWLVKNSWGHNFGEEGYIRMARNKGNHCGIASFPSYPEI
Chain of human cathepsin L (P07711 114-333): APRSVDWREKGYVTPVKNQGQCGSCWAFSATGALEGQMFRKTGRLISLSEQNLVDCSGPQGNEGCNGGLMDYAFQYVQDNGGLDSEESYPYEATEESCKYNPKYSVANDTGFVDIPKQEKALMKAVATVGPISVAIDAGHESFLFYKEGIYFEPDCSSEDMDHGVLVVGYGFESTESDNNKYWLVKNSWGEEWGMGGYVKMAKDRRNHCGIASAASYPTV

On to `CC(C)C[C@H](NC(=O)c1ccc(-c2csc(N3CCN(C)CC3)n2)c(F)c1)C(=O)N1C[C@@H](Cl)[C@H]2OCC(=O)[C@H]21` [Example 10, N—[(S)-1-((3aS,6R,6aS)-6-Chloro-3-oxo-hexahydro-furo[3,2-b]pyrrole-4-carbonyl)-3-methyl-butyl]-3-fluoro-4-[2-(4-methyl-piperazin-1-yl)-thiazol-4-yl]-benzamide], for which the Ki in data set [1] (Table 1, class symbols) was 50 to 500 nM; in data set [1] (setting [6]), 490 nM; in data set [3] (Table 1, class symbols) it was 1000 to 5000 nM; in data set [3] (setting [6]) it was 4700 nM; in data set [4] (Table 1, class symbols), less than 50 nM; in data set [4] (setting [6]) it was 3.4 nM. The same compound came in with a Papp at 120 min, 10 μM in data set [2] of 5.2 ×10⁻⁶ cm/s.
Consider `CC(C)C[C@H](NC(=O)c1ccc(-c2nc(N3CCN(C)CC3)sc2F)cc1)C(=O)N1C[C@@H](Cl)[C@H]2OCC(=O)[C@H]21` [Example 12, N-[1-(6-Chloro-3-oxo-hexahydro-furo[3,2-b]pyrrole-4-carbonyl)-3-methyl-butyl]-4-[5-fluoro-2-(4-methyl-piperazin-1-yl)-thiazol-4-yl]-benzamide], for which the Ki in data set [1] (Table 1, class symbols) was 1000 to 5000 nM; in data set [1] (setting [6]), 1600 nM; in data set [3] (Table 1, class symbols), more than 10000 nM; in data set [3] (setting [6]) it was 11000 nM; in data set [4] (Table 1, class symbols), less than 50 nM; in data set [4] (setting [6]), 1.8 nM. The compound also yielded a Papp at 120 min, 10 μM in data set [2] of 10 ×10⁻⁶ cm/s. Further, the half-life at 2 μM in data set [5] turned out to be 4.5 h.

The values are drawn from patent US7893067B2, “Cysteine protease inhibitors” (Medivir AB, priority 2007, dated 2011).
